Laboratory results taken from patent publication US7371748B2, “Benzothiazole derivatives” (Hoffman-La Roche Inc., priority 2003, dated 2008).

Assays:
[1] = target: T1, human adenosine A2A receptor (Homo sapiens, UniProt P29274); experiment: [3H]-SCH-58261 binding assay, human adenosine A2A receptor; conditions: human A2A receptor recombinantly expressed in CHO cell membranes; [3H]-SCH-58261 1 nM; Ki from IC50 by Cheng-Prussoff equation; read-out: Ha2 (pKi) (converted)
T1 construct: expressed in transfected cells; host or cells: CHO cells, Semliki Forest virus expression system; membrane preparation
T1 sequence (P29274 whole entry): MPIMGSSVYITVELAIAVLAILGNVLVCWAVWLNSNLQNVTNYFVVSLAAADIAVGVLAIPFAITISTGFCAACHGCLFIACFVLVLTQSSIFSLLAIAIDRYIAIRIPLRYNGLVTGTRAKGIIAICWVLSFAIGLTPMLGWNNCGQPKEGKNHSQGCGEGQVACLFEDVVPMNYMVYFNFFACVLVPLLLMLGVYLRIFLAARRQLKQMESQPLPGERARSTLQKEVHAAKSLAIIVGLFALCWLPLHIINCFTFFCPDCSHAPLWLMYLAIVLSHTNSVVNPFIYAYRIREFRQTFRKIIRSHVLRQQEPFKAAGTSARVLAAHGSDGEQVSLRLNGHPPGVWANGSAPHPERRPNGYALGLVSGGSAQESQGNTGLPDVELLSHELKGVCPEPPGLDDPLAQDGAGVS
Method: Human Adenosine A2A Receptor
The human adenosine A2A receptor was recombinantly expressed in chinese hamster ovary (CHO) cells using the semliki forest virus expression system. Cells were harvested, washed twice by centrifugation, homogenized and again washed by centrifugation. The final washed membrane pellet was suspended in a Tris (50 mM) buffer containing 120 mM NaCl, 5 mM KCl, 2 mM CaCl2 and 10 mM MgCl2 (pH 7.4) (buffer A). The [^3H]-SCH-58261 (Dionisotti et al., […], Br J Pharmacol 121, 353; 1 nM) binding assay was carried out in 96-well plates in the presence of 2.5 μg of membrane protein, 0.5 mg of Ysi-poly-1-lysine SPA beads and 0.1 U adenosine deaminase in a final volume of 200 μl of buffer A. Non-specific binding was defined using xanthine amine congener (XAC; 2 μM). Compounds were tested at 10 concentrations from 10 μM-0.3 nM. All assays were conducted in duplicate and repeated at least two times. Assay plates were incubated for 1 hour at room temperature before centrifugation and then bound ligand determined using a Packard Topcount scintillation counter. IC50 values were calculated using a non-linear curve fitting program and Ki values calculated using the Cheng-Prussoff equation.

melting point	Ki [1]	Compound
152 to 155 °C	2.51 nM	COc1ccc(C2CCOCC2)c2sc(NC(=O)N(C)C3CCN(C)CC3)nc12 [Example 20, 3-[4-Methoxy-7-(tetrahydro-pyran-4-yl)-benzothiazol-2-yl]-1-methyl-1-(1-methyl-piperidin-4-yl)-urea]
185 to 188 °C	1.26 nM	COc1ccc(C2CCOCC2)c2sc(NC(=O)N(C)C3CC4CCC3O4)nc12 (single isomer, unassigned) [Example 55, (exo)-(+)-3-[4-Methoxy-7-(tetrahydro-pyran-4-yl)-benzothiazol-2-yl]-1-methyl-1-(7-oxa-bicyclo[2.2.1]hept-2-yl)-urea]
